From patent US20080027001A1, “NOGO RECEPTOR FUNCTIONAL MOTIFS, PEPTIDE MIMETICS, AND MUTATED FUNCTIONAL MOTIFS RELATED THERETO, AND METHODS OF USING THE SAME” (priority 2006, published 2008)
Positions count from the first letter of the chain named. Values joined by “and” are separate entries in the source; they are usually repeats but may differ in a detail not shown here. Equal entries are not always repeated.

Experiments:
NgR1(310)-fc = molecular target: T1, NgR1(310)-fc (Homo sapiens, UniProt Q9BZR6); test: Analytical ultracentrifugation (sedimentation velocity), wild type receptor; assay type: binding; conditions: ganglioside 0 to 48 μM (FIG. 3A-C)
T1 construct: made in house; host or cells: mammalian expression vector (pSMED2)
T1 sequence (Q9BZR6 with tags, fused parts or gaps limits assumed): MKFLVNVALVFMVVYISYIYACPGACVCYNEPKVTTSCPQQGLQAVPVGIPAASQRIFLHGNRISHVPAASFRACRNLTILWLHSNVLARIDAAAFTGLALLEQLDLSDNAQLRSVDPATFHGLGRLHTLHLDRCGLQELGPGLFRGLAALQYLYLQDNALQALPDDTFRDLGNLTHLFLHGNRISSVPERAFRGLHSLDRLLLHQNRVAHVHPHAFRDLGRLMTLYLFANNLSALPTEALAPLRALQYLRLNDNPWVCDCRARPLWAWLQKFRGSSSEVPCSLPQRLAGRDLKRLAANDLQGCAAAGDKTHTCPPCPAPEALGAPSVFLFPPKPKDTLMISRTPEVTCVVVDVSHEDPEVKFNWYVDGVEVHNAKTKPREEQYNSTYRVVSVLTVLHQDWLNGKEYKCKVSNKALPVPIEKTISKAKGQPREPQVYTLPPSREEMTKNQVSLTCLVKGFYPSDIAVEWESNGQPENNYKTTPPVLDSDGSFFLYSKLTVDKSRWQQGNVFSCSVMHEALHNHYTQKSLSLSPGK
Excerpt: (§1) Human Nogo Receptor 1 (NgR1)(310)-fc point mutants (FRG-1 (R151E); FRG-2 (R279E); FRG-3 (R199E), and FRG-4 (R151E/R279E/R199E)) were constructed by Genewiz (North Brunswick, N.J.) using their site-directed mutagenesis technology. The template used to construct all the described mutants was wild type human NgR1(310)-fc (SEQ ID NO:59), which was generated by fusing a nucleotide sequence corresponding to the first 310 amino acid of Human Nogo Receptor 1 to a human Fc fragment in a mammalian expression vector (the sequence of wild type NgR1(310)-fc and the expression vector is set forth in SEQ ID NO:60 and a schematic of the expression vector is shown in FIG. 11). […]
(§2) Sedimentation velocity experiments were performed on a Beckman XLI/XLA analytical ultracentrifuge. […] Scans were recorded at 20° C. with a rotor speed of 35,000 rpm, and the signal was detected at 230 nm with a spacing of 0.006 in the continuous mode. Sedimentation profiles were analyzed by the program Sedfit (Schuck (2000) Biophys. J. 78:1606-19) to obtain the sedimentation coefficient distributions. The solvent density (1.006) and partial specific volume (0.72) were calculated using the program Sednterp (Laue et al. (1992) Analytical Ultracentrifugation in Biochemistry and Polymer Science (Harding, S. E., Towe, A. J. and Horton, J. C., eds.) pp. 90-125, Royal Society of Chemistry, Cambridge, U.K). […]

NgR1(310)-fc R199E = molecular target: T2, NgR1(310)-fc R199E (Homo sapiens, UniProt Q9BZR6, R199E); test: Analytical ultracentrifugation, R199E mutant receptor; assay type: binding
T2 construct: made in house; host or cells: mammalian expression vector
T2 sequence (Q9BZR6 27-310 R199E): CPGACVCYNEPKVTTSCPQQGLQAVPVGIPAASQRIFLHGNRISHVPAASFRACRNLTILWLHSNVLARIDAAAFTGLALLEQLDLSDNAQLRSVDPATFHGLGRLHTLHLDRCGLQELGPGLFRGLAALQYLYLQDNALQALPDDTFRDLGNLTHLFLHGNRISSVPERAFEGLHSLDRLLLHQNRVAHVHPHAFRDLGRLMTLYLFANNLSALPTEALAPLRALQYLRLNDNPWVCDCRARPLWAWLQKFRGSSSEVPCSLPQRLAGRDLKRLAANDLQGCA
Excerpt: as §1, §2

[1] = tested on: anti-hNgR AF 1208 antibody; test: Analytical ultracentrifugation, specificity control; assay type: binding; conditions: 22 mM GT1b (data not shown)
Method: Sedimentation velocity experiments were performed on a Beckman XLI/XLA analytical ultracentrifuge. Wild type NgR(310)-fc (0.21 μM to 0.38 μM final) was added to ganglioside at concentrations increasing from 0 to 48 μM. Mutant protein used in the sedimentation velocity experiments corresponded to the column fraction of greatest purity based on SDS gel analysis. […] The solution (400 μL) was loaded into two-channel (1.2 cm path length) carbon-Epon centerpieces in an An-50-Ti rotor. Scans were recorded at 20° C. with a rotor speed of 35,000 rpm, and the signal was detected at 230 nm with a spacing of 0.006 in the continuous mode. Sedimentation profiles were analyzed by the program Sedfit (Schuck (2000) Biophys. J. 78:1606-19) to obtain the sedimentation coefficient distributions. The solvent density (1.006) and partial specific volume (0.72) were calculated using the program Sednterp (Laue et al. (1992) Analytical Ultracentrifugation in Biochemistry and Polymer Science (Harding, S. E., Towe, A. J. and Horton, J. C., eds.) pp. 90-125, Royal Society of Chemistry, Cambridge, U.K).
The peptide competition studies, together with the direct binding assays, have implicated the FRG motif within loop 2 as being important for MAG function. […]

NgR1(310)-fc R151E = molecular target: T3, NgR1(310)-fc R151E (Homo sapiens, UniProt Q9BZR6, R151E); test: Analytical ultracentrifugation, R151E mutant receptor; assay type: binding
T3 construct: made in house; host or cells: mammalian expression vector
T3 sequence (Q9BZR6 27-310 R151E): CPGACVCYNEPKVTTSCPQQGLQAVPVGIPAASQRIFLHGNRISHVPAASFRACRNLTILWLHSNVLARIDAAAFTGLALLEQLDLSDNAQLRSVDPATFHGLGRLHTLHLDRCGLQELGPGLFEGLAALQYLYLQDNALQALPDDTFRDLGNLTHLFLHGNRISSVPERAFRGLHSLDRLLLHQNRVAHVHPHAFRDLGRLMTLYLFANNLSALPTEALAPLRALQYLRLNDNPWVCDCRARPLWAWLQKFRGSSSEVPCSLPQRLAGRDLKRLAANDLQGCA
Excerpt: as §1, §2

NgR1(310)-fc R279E = molecular target: T4, NgR1(310)-fc R279E (Homo sapiens, UniProt Q9BZR6, R279E); test: Analytical ultracentrifugation, R279E mutant receptor; assay type: binding
T4 construct: made in house; host or cells: mammalian expression vector
T4 sequence (Q9BZR6 27-310 R279E): T3 sequence (Q9BZR6 27-310 R151E) with E125R, R253E
Excerpt: as §1, §2

[2] = tested on: NgR1 expressed in CHO cells (MAG-AP binding); test: Neuraminidase treatment, MAG-AP binding to NgR1-expressing CHO cells; conditions: MAG-AP 2.5-20 μg/ml; CHO cells treated with neuraminidase
Method: (§3) Chinese hamster ovary (CHO) parental cells and NgR1 stable cells were seeded at 30,000 cells per well in 96-well plates the night before the assay. Various concentrations of Vibrio cholera neuraminidase (Roche Applied Science, Indianapolis, Ind.) in growth medium (Dulbecco's modified Eagle medium containing 10% fetal bovine serum) were incubated with cells for an hour at 37° C. Medium was replaced with affinity-purified MAG-AP or Nogo66-AP in HBSS supplemented with 1% fetal bovine serum and […] of HEPES and incubated at room temperature for 90 min. Cells were then washed four times with supplemented HBSS. AltoPhos (0.6 mg/ml) (Promega, Madison Wis.) was added for indication of bound ligands. After a 30 minute incubation at RT, the plates were read at […] wavelength of 400 nm/505 nm with FLEXSTATION® 11384.
(§4) In neurons, soluble MAG binds to the NgR1 and NgR2 in a sialic acid-dependent manner (Venkatesh et al. (2005) supra). In the present study, the neuraminidase sensitivity of MAG binding to the NgR1 expressed in CHO cells was confirmed.

[3] = tested on: NgR1 expressed in CHO cells (Nogo66-AP binding); test: Neuraminidase treatment, Nogo66-AP binding to NgR1-expressing CHO cells; conditions: highest concentration of neuraminidase; Nogo66-AP 10 μg/ml
Method: as §3, §4

[4] = tested on: cerebellar granule neurons; test: Neurite outgrowth on substrate-bound MAG; assay type: cell-based, rat; conditions: tested at up to 200 μg/ml (FIG. 6F)
Method: Cerebellar neurons isolated from postnatal day ⅔ rat pups were cultured over monolayers of 3T3 cells (Doherty et al. (1991) Neuron 6(2):247-58) essentially as previously described (Williams et al. (1994) Neuron 13(3):583-94). Monolayers were established by seeding ˜80,000 cells into individual chambers of an eight-chamber tissue culture slide coated with poly-L-lysine and fibronectin. The cell lines, and monolayers, were maintained in Dulbecco's modified Eagle's medium supplemented with 10% fetal calf serum (FCS). […] Following careful fixation with 4% paraformaldehyde, the neurons were stained with a GAP-43 antibody, and the mean length of the longest neurite per cell was measured for ˜120-150 neurons, again as previously described (Williams et al. (1994) supra). […] The average of total neurite lengths from each neuron was measured automatically by the MetaXpress Neurite Outgrowth module (Molecular Devices, Sunnyvale, Calif.) from at least 200 neurons per well, in triplicate wells per experiment. […]

cerebellar neurons = test: Neurite outgrowth assay, inhibition by soluble MAG-Fc; assay type: cell-based, rat; conditions: MAG-Fc 20 μg/ml, increasing peptide concentrations (FIG. 6E)
Method: Cerebellar neurons isolated from postnatal day ⅔ rat pups were cultured over monolayers of 3T3 cells (Doherty et al. (1991) Neuron 6(2):247-58) essentially as previously described (Williams et al. (1994) Neuron 13(3):583-94). Monolayers were established by seeding ˜80,000 cells into individual chambers of an eight-chamber tissue culture slide coated with poly-L-lysine and fibronectin. The cell lines, and monolayers, were maintained in Dulbecco's modified Eagle's medium supplemented with 10% fetal calf serum (FCS). Cocultures were established by removing the media from the monolayers and seeding ˜6000 dissociated cerebellar neurons into each well in SATO medium (modified from Doherty et al. (1990) Neuron 5(2):209-19; Dulbecco's modified Eagle's medium supplemented with 2% FBS, 33% bovine albumin, 0.62 μg/ml progesterone, 161 μg/ml putrescine, 4 μg/ml L-thyroxine, 0.387 μg/ml selenium, and 3.37 μg/ml tri-iodo-thyronine (components from Sigma-Aldrich, St. Louis, Mo.)). Monolayers were established for 24 hours prior to addition of the neurons and the cultures were maintained for ˜23-27 hr. Following careful fixation with 4% paraformaldehyde, the neurons were stained with a GAP-43 antibody, and the mean length of the longest neurite per cell was measured for ˜120-150 neurons, again as previously described (Williams et al. (1994) supra). For neurite outgrowth on substrate-bound MAG, 96-well plates were coated with a thin layer of nitrocellulose (Bio-Rad, Hercules, Calif.) before incubating with 1 μg/ml of MAG(d1-5) (a chimeric construct containing domains 1-5 of the extracellular portion of MAG) at 4° C. overnight. Wells were subsequently coated with 17 μg/ml of poly-D-lysine (Sigma, St. Louis, Mo.), followed by incubation in Dulbecco's modified Eagle's medium containing 10% FCS. Cerebellar granule neurons were dissociated and seeded at a density of 10^4 cells per well. Cells were cultured for 18-20 h before being fixed with 4% paraformaldehyde and stained with a neuronal-specific anti-III-tubulin antibody, Tuj 1 (Covance, Emeryville, Calif.). The average of total neurite lengths from each neuron was measured automatically by the MetaXpress Neurite Outgrowth module (Molecular Devices, Sunnyvale, Calif.) from at least 200 neurons per well, in triplicate wells per experiment. Results were repeated independently more than three times.
Synthetic peptides were all obtained from a commercial supplier (Multiple Peptide Systems, San Diego, Calif.). All peptides were purified to the highest grade by reverse-phase HPLC and obtained at the highest level of purity (>97%). With all peptides, there was no indication of higher molecular weight species. Where peptide sequences are underlined, this denotes a peptide that has been cyclized via a disulfide bond between the given cysteine residues. All peptides were acetylated (e.g., denoted with “N-Ac-”) and amide blocked (e.g., denoted with “—NH2”). Recombinant MAG-Fc chimera was obtained from R&D Systems (Minneapolis, Minn.) and used at final concentrations ranging from 5-25 μg/ml. The monoclonal antibody to GT1b (clone GMR5) was obtained from Seikagaku America (Falmouth, Mass.) and was used at a final concentration of 20 μg/ml. All reagents were diluted into the coculture media and, in general, added to the cultures just prior to the plating of the neurons. GT1b and GM1 were obtained as gifts from Dr. Gino Toffano (Libero, Italy) and University of Milan, and asialo-GM1 was obtained from Sigma (St. Louis, Mo.). The recombinant NgR1(310)-fc and MAG(d1-5) chimeras were expressed and purified in-house. Pharmacological reagents were obtained from Calbiochem (La Jolla, Calif.) and/or Sigma. For reagents used in cell-surface NgR binding assays, please see Examples 1.5 and 1.7. For reagents used in the cell surface p75NTR-NgR-AP binding assay, please see Example 1.13.
In contrast, a soluble MAG-Fc chimera inhibits neurite outgrowth in a manner that depends upon both ganglioside and NgR function. […]

GT1b
interaction with NgR1(310)-fc (shift of sedimentation coefficient) (NgR1(310)-fc): additional peaks with higher sedimentation coefficients appear in a dose-dependent manner | reduction of GT1b/NgR1 complex formation (NgR1(310)-fc R199E; R199 mutated): ~70% | GT1b binding relative to wild type / residual complex formation (NgR1(310)-fc R199E; mutation of arginine 199, GT1b 22 μM): ~30% and 33% | effect on sedimentation of control antibody [1]: No effect | reduction of GT1b/NgR1 complex formation (NgR1(310)-fc R151E; R151 mutated): ~50% | GT1b binding relative to wild type (NgR1(310)-fc R151E; mutation of arginine 151, GT1b 22 μM): 49% | reduction of GT1b/NgR1 complex formation (NgR1(310)-fc R279E; R279 mutated): ~50% | GT1b binding relative to wild type NgR (NgR1(310)-fc R279E; mutation of arginine 279, GT1b 22 μM, ratio of ~6.7 S and ~11 S peaks): approximately 56%

neuraminidase: Vibrio cholera neuraminidase (Roche Applied Science)
inhibition of specific binding of MAG-AP to NgR1-expressing cells [2]: 55% | effect on Nogo66-AP binding to NgR1 [3]: completely unaffected

N-Ac-c[sGrfkq]-NH2 (XGXXXX; not fully specified; cyclised or stapled) [hriNRL2]
effect on suppressed neurite outgrowth on MAG substrate [4]: no significant effect | efficacy in inhibiting the MAG response (cerebellar neurons): retain full efficacy
